The values that follow come from BindingDB's records for doi:10.1021/jm500569h (Georgetown University, 2014).

The nature of experiment [1]: Agonist activity at ER in human MCF7:WS8 cells assessed as increase in cell growth by measuring DNA level after 7 days by fluorescence analysis.
Experiment [2] is described as follows: Antagonist activity at ER in human MCF7:WS8 cells assessed as inhibition of estradiol-induced cell growth by measuring DNA level after 7 days by fluorescence analysis.

With `COc1ccc(C2=C(c3ccccc3)CCCc3cc(O)ccc32)cc1`, the 50% effective concentration (EC50) in experiment [1] was 0.3 nM. The same measure, in the same setting: next, `CCOc1ccc(C2=C(c3ccccc3)CCCc3cc(O)ccc32)cc1`: 0.3 nM; `CN(C)CCOc1ccc2c(c1)CCCC(c1ccccc1)=C2c1ccc(O)cc1`: 15 nM; `COc1ccc2c(c1)CCCC(c1ccccc1)=C2c1ccc(O)cc1`: 4 nM.

`CCOc1ccc2c(c1)CCCC(c1ccccc1)=C2c1ccc(O)cc1`: the EC50 in experiment [1] turned out to be 2.7 nM. As for `CNCCOc1ccc2c(c1)CCCC(c1ccccc1)=C2c1ccc(O)cc1`, in experiment [1], the EC50 was 20 nM. Still for that read-out and setting: next, `CCC(=C(c1ccc(O)cc1)c1ccc(O)cc1)c1ccc(O)cc1`: 0.15 nM.

Consider `CCOc1ccc2c(c1)CCCC(c1ccccc1)=C2c1ccc(OCCN(C)C)cc1`, for which the IC50 in experiment [2] turned out to be 3 nM.

Take `CNCCOc1ccc(C2=C(c3ccccc3)CCCc3cc(O)ccc32)cc1`: the IC50 in experiment [2] worked out at 3 nM. For the compound `CCC(=C(c1ccc(O)cc1)c1ccc(O)cc1)c1ccccc1` [1,1-bis(4,4'-hydroxyphenyl)-2-phenylbut-1-ene], in experiment [1], the EC50 stood at 0.015 nM.

Usually EC50 stands for the concentration needed to bring the measured effect to its halfway point. The IC50 is the concentration needed to halve the response being measured.
